The record followed here is ChEMBL document CHEMBL1126146, “Synthesis and muscarinic activity of quinuclidinyl- and (1-azanorbornyl)pyrazine derivatives” (J Med Chem, 1992).

One assay has as its target T1, Muscarinic acetylcholine receptor (Rattus norvegicus) (UniProt P08482+P08483+P08485+P08911+P10980).
Description: In vitro binding affinity against cortical muscarinic acetylcholine receptor measured by displacement of [3H]NMS.
Compound `C#CCOc1cncc(C2CN3CCC2C3)n1` (configuration not stated) gave a K app of 0.15 µM.

On to `CCc1cncc(C2CN3CCC2CC3)n1` (configuration not stated), for which the K app was determined as 0.02 µM.

`Cc1cnc([C@@H]2CN3CCC2C3)c(C)n1` (some centres not stated) yielded a K app of 6.2 µM.

In turn, `Oc1cncc(C2CN3CCC2CC3)n1` (configuration not stated) showed a K app of 27 µM.

`Cc1cnc(C)c([C@H]2CN3CCC2C3)n1` (some centres not stated) yielded a K app of 0.19 µM.

As for `Brc1cncc(C2CN3CCC2CC3)n1` (configuration not stated), the K app amounted to 0.033 µM.

In turn, `CCc1cncc(C2CN3CCC2C3)n1` (stereo in doubt; 27a) yielded a K app of 0.13 µM.

Compound `CCc1nccnc1[C@@H]1CN2CCC1C2` (some centres not stated) returned a K app of 2.2 µM.

Turning to `C=CCOc1cncc([C@H]2CN3CCC2C3)n1` (some centres not stated), the K app was determined as 0.23 µM.

As for `Cc1cnc(C)c(C2CN3CCC2CC3)n1` (configuration not stated), the K app came out at 0.26 µM.

Regarding `Cc1ncc(C2CN3CCC2CC3)cn1` (configuration not stated), the K app turned out to be 1.5 µM.

Regarding `CN(C)c1cncc([C@@H]2CN3CCC2C3)n1` (some centres not stated), the K app is 0.03 µM.

Compound `c1cnc(C2CN3CCC2CC3)cn1` (configuration not stated) registered a K app of 0.27 µM.

In turn, `Cc1nccnc1[C@H]1CN2CCC1C2` (some centres not stated) had a K app of 0.21 µM.

`COc1cncc([C@@H]2CN3CCCC2C3)n1` (some centres not stated) registered a K app of 0.19 µM.

Compound `Cc1ncc([C@H]2CN3CCC2C3)nc1C` (some centres not stated) had a K app of 0.28 µM.

Compound `CCc1cncc(C2CN3CCC2C3)n1` (stereo in doubt; 27b) came in with a K app of 0.15 µM.

`Cc1cncc(C2CN3CCC2CC3)n1` (configuration not stated) returned a K app of 0.066 µM.

`Cc1cncc([C@@H]2CN3CCC2C3)n1` (some centres not stated) showed a K app of 0.47 µM.

Turning to `c1cnc([C@@H]2CN3CCC2C3)cn1` (some centres not stated), the K app was determined as 1.6 µM.

Compound `Cc1cnc([C@H]2CN3CCC2C3)c(C)n1` (some centres not stated) returned a K app of 0.75 µM.

In turn, `CCOc1cncc(C2CN3CCC2CC3)n1` (configuration not stated) had a K app of 0.019 µM.

For the compound `CCCc1nccnc1C1CN2CCC1C2` (configuration not stated), the K app is 0.35 µM.

In turn, `CN(C)c1cncc([C@H]2CN3CCC2C3)n1` (some centres not stated) showed a K app of 0.86 µM.

On to `Cc1ncc([C@@H]2CN3CCC2C3)nc1C` (some centres not stated), for which the K app came to 0.53 µM.

Turning to `Cc1cncc([C@H]2CN3CCC2C3)n1` (some centres not stated), the K app stood at 0.18 µM.

`COc1cncc([C@H]2CN3CCCC2C3)n1` (some centres not stated) registered a K app of 1.2 µM.

As for `Cc1nc(C)c([C@@H]2CN3CCC2C3)nc1C` (some centres not stated), the K app was determined as 1.6 µM.

The compound `c1cnc([C@@H]2CN3CCCC2C3)cn1` (some centres not stated) came in with a K app of 1.5 µM.

As for `c1cnc([C@H]2CN3CCC2C3)cn1` (some centres not stated), the K app came out at 0.059 µM.

The compound `COc1cncc(C2CN3CCC2CC3)n1` (configuration not stated) registered a K app of 0.14 µM.

As for `Clc1ccc(C2CN3CCC2CC3)nn1` (configuration not stated), the K app amounted to 3.5 µM.

Compound `COc1cncc([C@H]2CN3CCC2C3)n1` (some centres not stated) registered a K app of 0.96 µM.

Consider `CC(C)Oc1cncc([C@H]2CN3CCC2C3)n1` (some centres not stated), for which the K app came out at 0.13 µM.

`Cc1ncc(C2CN3CCC2CC3)nc1C` (configuration not stated) gave a K app of 0.078 µM.

`C=CCOc1cncc([C@@H]2CN3CCC2C3)n1` (some centres not stated) gave a K app of 0.12 µM.

With `CC(C)Oc1cncc([C@@H]2CN3CCC2C3)n1` (some centres not stated), the K app was 0.049 µM.

`COc1cncc([C@@H]2CN3CCC2C3)n1` (some centres not stated): the K app is 0.46 µM.

As to `c1cnc([C@H]2CN3CCCC2C3)cn1` (some centres not stated), the K app came to 0.4 µM.

`Cc1nc(C)c([C@H]2CN3CCC2C3)nc1C` (some centres not stated) showed a K app of 0.35 µM.

`Cc1cnc(C)c([C@@H]2CN3CCC2C3)n1` (some centres not stated): the K app was determined as 3 µM.

`Clc1cncc(C2CN3CCC2C3)n1` (configuration not stated) had a K app of 0.21 µM.

`Clc1cncc(C2CN3CCC2CC3)n1` (configuration not stated) came in with a K app of 0.051 µM.

In turn, `Cc1nccnc1C1CN2CCC1CC2` (configuration not stated) showed a K app of 1.51 µM.

Turning to `c1ncc(C2CN3CCC2CC3)cn1` (configuration not stated), the K app was determined as 2.8 µM.

`CCc1nccnc1[C@H]1CN2CCC1C2` (some centres not stated): the K app came out at 0.69 µM.

Turning to `CC(C)c1nccnc1C1CN2CCC1C2` (configuration not stated), the K app came out at 0.48 µM.

As for `Cc1nccnc1[C@@H]1CN2CCC1C2` (some centres not stated), the K app turned out to be 5.2 µM.

The target of the next assay is T1, Muscarinic acetylcholine receptor (Rattus norvegicus). This is another data set of the same source.
Description: In vitro binding affinity against cortical muscarinic acetylcholine receptor measured by displacement of [3H]OXO-M.
Turning to `C#CCOc1cncc(C2CN3CCC2C3)n1` (configuration not stated), the K app turned out to be 0.0088 µM.

`CCc1cncc(C2CN3CCC2CC3)n1` (configuration not stated) showed a K app of 0.0017 µM.

Take `Cc1cnc([C@@H]2CN3CCC2C3)c(C)n1` (some centres not stated): the K app is 0.66 µM.

`Oc1cncc(C2CN3CCC2CC3)n1` (configuration not stated) returned a K app of 0.28 µM.

`Cc1cnc(C)c([C@H]2CN3CCC2C3)n1` (some centres not stated) registered a K app of 0.011 µM.

With `Brc1cncc(C2CN3CCC2CC3)n1` (configuration not stated), the K app was 0.001 µM.

The compound `CCc1cncc(C2CN3CCC2C3)n1` (stereo in doubt; 27a) displayed a K app of 0.0095 µM.

Turning to `CCc1nccnc1[C@@H]1CN2CCC1C2` (some centres not stated), the K app came to 0.14 µM.

As for `C=CCOc1cncc([C@H]2CN3CCC2C3)n1` (some centres not stated), the K app was 0.03 µM.

Compound `Cc1cnc(C)c(C2CN3CCC2CC3)n1` (configuration not stated) displayed a K app of 0.026 µM.

`Cc1ncc(C2CN3CCC2CC3)cn1` (configuration not stated) displayed a K app of 0.091 µM.

`CN(C)c1cncc([C@@H]2CN3CCC2C3)n1` (some centres not stated): the K app amounted to 0.07 µM.

The compound `c1cnc(C2CN3CCC2CC3)cn1` (configuration not stated) came in with a K app of 0.00068 µM.

Compound `Cc1nccnc1[C@H]1CN2CCC1C2` (some centres not stated) had a K app of 0.00026 µM.

As to `COc1cncc([C@@H]2CN3CCCC2C3)n1` (some centres not stated), the K app came to 0.0093 µM.

Compound `Cc1ncc([C@H]2CN3CCC2C3)nc1C` (some centres not stated) gave a K app of 0.015 µM.

Compound `CCc1cncc(C2CN3CCC2C3)n1` (stereo in doubt; 27b) had a K app of 0.0021 µM.

As for `Cc1cncc(C2CN3CCC2CC3)n1` (configuration not stated), the K app stood at 0.0021 µM.

In turn, `Cc1cncc([C@@H]2CN3CCC2C3)n1` (some centres not stated) yielded a K app of 0.0015 µM.

`c1cnc([C@@H]2CN3CCC2C3)cn1` (some centres not stated) returned a K app of 0.0007 µM.

For the compound `Cc1cnc([C@H]2CN3CCC2C3)c(C)n1` (some centres not stated), the K app amounted to 0.017 µM.

With `CCOc1cncc(C2CN3CCC2CC3)n1` (configuration not stated), the K app is 0.0021 µM.

`CCCc1nccnc1C1CN2CCC1C2` (configuration not stated) yielded a K app of 0.015 µM.

Take `CN(C)c1cncc([C@H]2CN3CCC2C3)n1` (some centres not stated): the K app was 0.057 µM.

On to `Cc1ncc([C@@H]2CN3CCC2C3)nc1C` (some centres not stated), for which the K app stood at 0.013 µM.

Consider `Cc1cncc([C@H]2CN3CCC2C3)n1` (some centres not stated), for which the K app is 0.0014 µM.

With `COc1cncc([C@H]2CN3CCCC2C3)n1` (some centres not stated), the K app was 0.087 µM.

Regarding `Cc1nc(C)c([C@@H]2CN3CCC2C3)nc1C` (some centres not stated), the K app was determined as 0.25 µM.

Take `Nc1noc(C2CN3CCC2C3)n1` (stereo in doubt; 3b): the K app was determined as 0.0051 µM.

On to `c1cnc([C@@H]2CN3CCCC2C3)cn1` (some centres not stated), for which the K app was 0.014 µM.

Compound `c1cnc([C@H]2CN3CCC2C3)cn1` (some centres not stated) came in with a K app of under 8.6e-05 µM.

In the case of `COc1cncc(C2CN3CCC2CC3)n1` (configuration not stated), the K app was determined as 0.0076 µM.

Take `Clc1ccc(C2CN3CCC2CC3)nn1` (configuration not stated): the K app was 0.098 µM.

On to `COc1cncc([C@H]2CN3CCC2C3)n1` (some centres not stated), for which the K app stood at 0.038 µM.

For `CC(C)Oc1cncc([C@H]2CN3CCC2C3)n1` (some centres not stated), the K app amounted to 0.031 µM.

In turn, `Cc1ncc(C2CN3CCC2CC3)nc1C` (configuration not stated) registered a K app of 0.0095 µM.

As for `C=CCOc1cncc([C@@H]2CN3CCC2C3)n1` (some centres not stated), the K app was 0.021 µM.

`CC(C)Oc1cncc([C@@H]2CN3CCC2C3)n1` (some centres not stated) returned a K app of 0.012 µM.

On to `COc1cncc([C@@H]2CN3CCC2C3)n1` (some centres not stated), for which the K app came to 0.0098 µM.

`c1cnc([C@H]2CN3CCCC2C3)cn1` (some centres not stated) had a K app of 0.00084 µM.

`Cc1nc(C)c([C@H]2CN3CCC2C3)nc1C` (some centres not stated) had a K app of 0.053 µM.

The compound `Cc1cnc(C)c([C@@H]2CN3CCC2C3)n1` (some centres not stated) showed a K app of 0.13 µM.

As to `Clc1cncc(C2CN3CCC2C3)n1` (configuration not stated), the K app came to 0.00056 µM.

`Clc1cncc(C2CN3CCC2CC3)n1` (configuration not stated) had a K app of 0.00087 µM.

For `Cc1nccnc1C1CN2CCC1CC2` (configuration not stated), the K app turned out to be 0.01 µM.

On to `c1ncc(C2CN3CCC2CC3)cn1` (configuration not stated), for which the K app amounted to 0.16 µM.

Regarding `CCc1nccnc1[C@H]1CN2CCC1C2` (some centres not stated), the K app was 0.02 µM.

As for `CC(C)c1nccnc1C1CN2CCC1C2` (configuration not stated), the K app worked out at 0.022 µM.

`Cc1nccnc1[C@@H]1CN2CCC1C2` (some centres not stated) yielded a K app of 0.0016 µM.
